From PubChem BioAssay AID1963863 (Molecular Pharmacology Branch, DTP, NCI, 2024)
Values joined by “and” are separate entries in the source; they are usually repeats but may differ in a detail not shown here. Equal values may be shown once.

Test system: 931267-113-T-J1-PDC KRAS spheroid with HUVEC/MSC, viability
Assay: Anticancer human tumor 931267-113-T-J1-PDC patient-derived colon adenocarcinoma cell line growth inhibition [KRAS2]
Details: for viability, T/C: stronger effect = lower value
How it was run: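 KRAS-mutant tumor cells were grown as spheroids with HUVEC endothelial cells and human MSCs as stroma. Targeted agents were tested alone and with KRAS pathway inhibitors. Doses started at or near clinical Cmax, or 10 microM, descending half-log.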

[1] = curve of first compound, second compound 0.0316 µM
[2] = curve of first compound, second compound 0.1 µM
[3] = curve of first compound, second compound 0.316 µM
[4] = curve of first compound, second compound 1 µM
[5] = curve of first compound, second compound 3.16 µM
[6] = second compound 0.0316 µM, first compound 0.0316 µM
[7] = second compound 0.0316 µM, first compound 0.1 µM
[8] = second compound 0.0316 µM, first compound 0.316 µM
[9] = second compound 0.0316 µM, first compound 1 µM
[10] = second compound 0.0316 µM, first compound 3.16 µM
[11] = second compound 0.1 µM, first compound 0.01 µM
[12] = second compound 0.1 µM, first compound 0.0316 µM
[13] = second compound 0.1 µM, first compound 0.1 µM
[14] = second compound 0.1 µM, first compound 0.316 µM
[15] = second compound 0.1 µM, first compound 1 µM
[16] = second compound 0.1 µM, first compound 3.16 µM
[17] = second compound 0.316 µM, first compound 0.01 µM
[18] = second compound 0.316 µM, first compound 0.0316 µM
[19] = second compound 0.316 µM, first compound 0.1 µM
[20] = second compound 0.316 µM, first compound 0.316 µM
[21] = second compound 0.316 µM, first compound 1 µM
[22] = second compound 0.316 µM, first compound 3.16 µM
[23] = second compound 1 µM, first compound 0.01 µM
[24] = second compound 1 µM, first compound 0.0316 µM
[25] = second compound 1 µM, first compound 0.1 µM
[26] = second compound 1 µM, first compound 0.316 µM
[27] = second compound 1 µM, first compound 1 µM
[28] = second compound 1 µM, first compound 3.16 µM
[29] = second compound 3.16 µM, first compound 0.01 µM
[30] = second compound 3.16 µM, first compound 0.0316 µM
[31] = second compound 3.16 µM, first compound 0.1 µM
[32] = second compound 3.16 µM, first compound 0.316 µM
[33] = second compound 3.16 µM, first compound 1 µM
[34] = second compound 3.16 µM, first compound 3.16 µM
[35] = second compound 0.1 µM, first compound 10 µM
[36] = second compound 0.316 µM, first compound 10 µM
[37] = second compound 1 µM, first compound 10 µM
[38] = second compound 3.16 µM, first compound 10 µM
[39] = curve of first compound, second compound 10 µM
[40] = second compound 10 µM, first compound 0.01 µM
[41] = second compound 10 µM, first compound 0.0316 µM
[42] = second compound 10 µM, first compound 0.1 µM
[43] = second compound 10 µM, first compound 0.316 µM
[44] = second compound 10 µM, first compound 1 µM
[45] = second compound 10 µM, first compound 3.16 µM
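Note: compound exposure lasted 7 days before the readout.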
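Throughout, for viability, T/C: 100% = DMSO vehicle control viability.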

SMILES: CC(=O)OC12COC1CC(O)C1(C)C(=O)C(O)C3=C(C)C(OC(=O)C(O)C(NC(=O)OC(C)(C)C)c4ccccc4)CC(O)(C(OC(=O)c4ccccc4)C21)C3(C)C (stereo unspecified) + C=CC(=O)N1CCN(c2nc(OCC3CCCN3C)nc3c2CCN(c2cccc4cccc(C)c24)C3)CC1CC#N
- IC50 [1]: > 3160 nM
- IC50 [2]: > 3160 nM
- IC50 [3]: > 3160 nM
- IC50 [4]: 1300 nM
- IC50 [5]: > 3160 nM
- viability, T/C (second compound 0.0316 µM, first compound 0.01 µM): 87.4%
- viability, T/C [6]: 86.6%
- viability, T/C [7]: 76.2%
- viability, T/C [8]: 91.5%
- viability, T/C [9]: 128%
- viability, T/C [10]: 78.6%
- viability, T/C [11]: 106%
- viability, T/C [12]: 99.4%
- viability, T/C [13]: 89.6%
- viability, T/C [14]: 82.7%
- viability, T/C [15]: 72.1%
- viability, T/C [16]: 82.4%
- viability, T/C [17]: 126%
- viability, T/C [18]: 109%
- viability, T/C [19]: 94.7%
- viability, T/C [20]: 75.8%
- viability, T/C [21]: 76.7%
- viability, T/C [22]: 75.5%
- viability, T/C [23]: 84.5%
- viability, T/C [24]: 91.4%
- viability, T/C [25]: 77%
- viability, T/C [26]: 86%
- viability, T/C [27]: 54.6%
- viability, T/C [28]: 34.5%
- viability, T/C [29]: 83.5%
- viability, T/C [30]: 104%
- viability, T/C [31]: 102%
- viability, T/C [32]: 84.8%
- viability, T/C [33]: 91.7%
- viability, T/C [34]: 90.1%

SMILES: CC1(C)CCC(CN2CCN(c3ccc(C(=O)NS(=O)(=O)c4ccc(NCC5CCOCC5)c([N+](=O)[O-])c4)c(Oc4cnc5[nH]ccc5c4)c3)CC2)=C(c2ccc(Cl)cc2)C1
- viability, T/C (compound 0.0316 µM): 99.5% [middle of 5 runs]
- viability, T/C (compound 0.1 µM): 89.5% [middle of 5 runs]
- viability, T/C (compound 0.316 µM): 91.4% [middle of 5 runs]
- viability, T/C (compound 1 µM): 96.9% [middle of 5 runs]
- viability, T/C (compound 3.16 µM): 33.6% [middle of 5 runs]
- viability, T/C (compound 10 µM): 10.7% [middle of 5 runs]
- IC50 (curve of compound): 2.34 µM [middle of 5 runs]

SMILES: CC1(C)CCC(CN2CCN(c3ccc(C(=O)NS(=O)(=O)c4ccc(NCC5CCOCC5)c([N+](=O)[O-])c4)c(Oc4cnc5[nH]ccc5c4)c3)CC2)=C(c2ccc(Cl)cc2)C1 + C=CC(=O)N1CCN(c2nc(OCC3CCCN3C)nc3c2CCN(c2cccc4cccc(C)c24)C3)CC1CC#N
- IC50 [1]: 1960 nM
- IC50 [2]: 2360 nM
- IC50 [3]: 1900 nM
- IC50 [4]: 1550 nM
- IC50 [5]: < 31.6 nM
- viability, T/C [6]: 107%
- viability, T/C [7]: 93.6%
- viability, T/C [8]: 102%
- viability, T/C [9]: 83%
- viability, T/C [10]: 26.2%
- viability, T/C (second compound 0.0316 µM, first compound 10 µM): 0.37%
- viability, T/C [12]: 110%
- viability, T/C [13]: 120%
- viability, T/C [14]: 97.5%
- viability, T/C [15]: 106%
- viability, T/C [16]: 31%
- viability, T/C [35]: 0.82%
- viability, T/C [18]: 114%
- viability, T/C [19]: 94.8%
- viability, T/C [20]: 89.3%
- viability, T/C [21]: 94.6%
- viability, T/C [22]: 14.8%
- viability, T/C [36]: 0.28%
- viability, T/C [24]: 102%
- viability, T/C [25]: 84.3%
- viability, T/C [26]: 94.5%
- viability, T/C [27]: 78%
- viability, T/C [28]: 4.65%
- viability, T/C [37]: 0.18%
- viability, T/C [30]: 0.38%
- viability, T/C [31]: 0.51%
- viability, T/C [32]: 0.75%
- viability, T/C [33]: 0.2%
- viability, T/C [34]: 0.34%
- viability, T/C [38]: 0.26%

SMILES: CN(C)C/C=C/C(=O)Nc1cc2c(Nc3ccc(F)c(Cl)c3)ncnc2cc1O[C@H]1CCOC1
- viability, T/C (compound 0.000316 µM): 94.5% [middle of 5 runs]
- viability, T/C (compound 0.01 µM): 79.1% [middle of 5 runs]
- viability, T/C (compound 0.1 µM): 79% [middle of 5 runs]
- IC50 (curve of compound): > 100 nM

SMILES: CC1COCCN1c1cc(-c2ccnn2C)c2ccnc(-c3ccn[nH]3)c2n1 (stereo unspecified) + CNCc1ccccc1-c1csc(C(C)Nc2nc(C)nc3cc(OC)c(OC)cc23)c1
- IC50 [2]: 49.6 nM
- IC50 [3]: 46.6 nM
- IC50 [4]: 27.8 nM
- IC50 [5]: < 10 nM
- IC50 [39]: < 10 nM
- viability, T/C [11]: 87.4%
- viability, T/C [12]: 64.9%
- viability, T/C [13]: 27.4%
- viability, T/C [14]: 11.4%
- viability, T/C [15]: 17.1%
- viability, T/C [16]: 18%
- viability, T/C [17]: 80.2%
- viability, T/C [18]: 64.9%
- viability, T/C [19]: 20.6%
- viability, T/C [20]: 14.7%
- viability, T/C [21]: 16.9%
- viability, T/C [22]: 15.3%
- viability, T/C [23]: 58.3%
- viability, T/C [24]: 48.8%
- viability, T/C [25]: 19.8%
- viability, T/C [26]: 7.5%
- viability, T/C [27]: 10.8%
- viability, T/C [28]: 6.12%
- viability, T/C [29]: 0.07%
- viability, T/C [30]: 0.07%
- viability, T/C [31]: 0.05%
- viability, T/C [32]: 0.04%
- viability, T/C [33]: 0.05%
- viability, T/C [34]: 0.14%
- viability, T/C [40]: 0.16%
- viability, T/C [41]: 0.09%
- viability, T/C [42]: 0.1%
- viability, T/C [43]: 0.1%
- viability, T/C [44]: 0.11%
- viability, T/C [45]: 1.06%

SMILES: CC1OCC2(CCN(c3cnc(Sc4ccnc(N)c4Cl)c(N)n3)CC2)C1N (stereo unspecified)
- viability, T/C (compound 0.0316 µM): 97.1% and 83.5% and 83%
- IC50 (compound alone, run of 08/19/2021): > 10000 nM
- IC50 (compound alone, run of 08/26/2021): > 10000 nM
- IC50 (compound alone, run of 09/02/2021): > 10000 nM
- IC50 (curve of compound): > 10000 nM

SMILES: COC(=O)c1ccc2c(C(=Nc3ccc(N(C)C(=O)CN4CCN(C)CC4)cc3)c3ccccc3)c(O)[nH]c2c1 + CNCc1ccccc1-c1csc(C(C)Nc2nc(C)nc3cc(OC)c(OC)cc23)c1
- IC50 [2]: 480 nM
- IC50 [3]: 356 nM
- IC50 [4]: 452 nM
- IC50 [5]: < 31.6 nM
- IC50 [39]: < 31.6 nM
- viability, T/C [12]: 65.7%
- viability, T/C [13]: 81%
- viability, T/C [14]: 58%
- viability, T/C [15]: 31%
- viability, T/C [16]: 0.36%
- viability, T/C [35]: 0.19%
- viability, T/C [18]: 76.5%
- viability, T/C [19]: 86.1%
- viability, T/C [20]: 55.6%
- viability, T/C [21]: 2.09%
- viability, T/C [22]: 0.23%
- viability, T/C [36]: 0.33%
- viability, T/C [24]: 84.5%
- viability, T/C [25]: 99.3%
- viability, T/C [26]: 72%
- viability, T/C [27]: 2.29%
- viability, T/C [28]: 0.7%
- viability, T/C [37]: 0.32%
- viability, T/C [30]: 0.3%
- viability, T/C [31]: 0.33%
- viability, T/C [32]: 0.17%
- viability, T/C [33]: 0.16%
- viability, T/C [34]: 0.15%
- viability, T/C [38]: 0.2%
- viability, T/C [41]: 0.24%
- viability, T/C [42]: 0.28%
- viability, T/C [43]: 0.13%
- viability, T/C [44]: 0.12%
- viability, T/C [45]: 0.14%
- viability, T/C (second compound 10 µM, first compound 10 µM): 0.29%

SMILES: CCN1CCN(Cc2ccc(Nc3ncc(F)c(-c4cc(F)c5nc(C)n(C(C)C)c5c4)n3)nc2)CC1 + CC1OCC2(CCN(c3cnc(Sc4ccnc(N)c4Cl)c(N)n3)CC2)C1N
- IC50 [2]: 27.3 nM
- IC50 [3]: 32.8 nM
- IC50 [4]: 41.2 nM
- IC50 [5]: 68.8 nM
- IC50 [39]: 201 nM
- viability, T/C (second compound 0.1 µM, first compound 0.00316 µM): 75.4%
- viability, T/C [11]: 58.2%
- viability, T/C [12]: 43.5%
- viability, T/C [13]: 51.4%
- viability, T/C [14]: 53.7%
- viability, T/C [15]: 36.9%
- viability, T/C (second compound 0.316 µM, first compound 0.00316 µM): 63%
- viability, T/C [17]: 91.7%
- viability, T/C [18]: 50.3%
- viability, T/C [19]: 43.3%
- viability, T/C [20]: 45.1%
- viability, T/C [21]: 37.5%
- viability, T/C (second compound 1 µM, first compound 0.00316 µM): 69.5%
- viability, T/C [23]: 82%
- viability, T/C [24]: 53.1%
- viability, T/C [25]: 41.4%
- viability, T/C [26]: 42%
- viability, T/C [27]: 35.3%
- viability, T/C (second compound 3.16 µM, first compound 0.00316 µM): 71.5%
- viability, T/C [29]: 70.2%
- viability, T/C [30]: 54.4%
- viability, T/C [31]: 43.6%
- viability, T/C [32]: 40.8%
- viability, T/C [33]: 23.8%
- viability, T/C (second compound 10 µM, first compound 0.00316 µM): 70.6%
- viability, T/C [40]: 79.1%
- viability, T/C [41]: 52.9%
- viability, T/C [42]: 58.7%
- viability, T/C [43]: 49%
- viability, T/C [44]: 9.83%
